The values that follow come from patent US12083105B2, “Compositions and methods for treating adult-onset neuronal ceroid lipofuscinosis (Kufs disease)” (CORNELL UNIVERSITY, priority 2020, dated 2024).

For this test, the system named is SNAP-25. As to the kind of experiment: SNAP-25 levels in total lysate of CSPα−/− primary cortical neurons (quantitative immunoblotting, β-actin normalization). Type of test: cell-based, mice. Conditions: 200 μM, 72 h, FIG. 3D; for augmentation of SNAP-25 levels: neurons expressing CSPα^L115R and CSPα^L116Δ; for SNAP-25 levels: neurons expressing CSPα^WT or SSPα. The source says:
For the experiments shown in FIGS. 3A-3E, primary cortical neurons from neonatal CSPα^−/− mice were infected with lentiviruses expressing Myc-tagged CSPα^WT, CSPα^L115R, CSPα^L116Δ, SSPα, or empty lentivirus (Control) on 7 days in vitro (DIV) and examined on 17 DIV. […] The lentivirus infected cells were stained using antibodies against Myc (green), somatodendritic marker MAP2 (red), and counterstained with nuclear stain DAPI (blue). […] Immunoprecipitation (IP) for SNAP-25 was followed by quantitative immunoblotting of the co-immunoprecipitated (co-IP'd) CSPα (top blot), and normalized to the IP'd SNAP-25 (bottom blot). IP: Control=sham IP without IgG. Palm=palmitoylated. […] The mutant CSPα signal was normalized to the amount of immunoprecipitated wilt type CSPα. N.D.=not detected. Representative data from of n=4 shown. […] Immunoprecipitation using anti-synaptobrevin-2 (Syb-2) antibody was followed by quantitative immunoblotting of co-IP'd SNARE-complex partners syntaxin-1 (Synt-1) and SNAP-25. IP: Control=sham IP with plain rabbit serum. […] The Synt-1 signal was normalized to the amount of each normalized to the IP'd Syb-2. Representative data from of n=4 shown. […] The SNAP-25 signal was normalized to the amount of each normalized to the IP'd Syb-2. For the experiments shown in FIGS. 3D-3E, CSPα^−/− primary cortical neurons were lentivirally infected to express Myc-tagged CSPα^WT, CSPα^L115R, CSPα^L116Δ, SSPα, or empty lentivirus (Control) on 5 DIV, and were treated on 12 DIV with vehicle (-=0.1% DMSO), or iron chelators deferiprone (L1=200 μM) and deferoxamine (Dfx=200 μM) for 72 h. […] Cell extracts were separated by SDS-PAGE, and subjected to quantitative immunoblotting using anti-SNAP-25 antibody and β-actin for normalization. To measure palmitoylation, oligomers were disrupted by lysing neurons in 0.1 N HCl plus 0.1% Triton X-100 for 20 min at 4° C., followed by SDS-PAGE and quantitative immunoblotting against CSPα. Representative immunoblots are shown. […] FIG. 3D (right panel) show quantitation of oligomers, palmitoylated CSPα, respectively, in corresponding lane and expressed as a percentage of total. […] Cell extracts were immunoprecipitated using a negative control or anti-Syb-2 antibody, followed by quantitative immunoblotting of the co-IP'd t-SNAREs SNAP-25 and Synt-1. […] In FIGS. 3B-3E data represent means±SEM. *P<0.05; **P<0.01; ***P<0.001; ****P<0.0001 by two-tailed Student's t-test. #P<0.05 by Mann-Whitney-Wilcoxon U test. n.s.=not significant; n.d.=not detected. […]
For SDS-PAGE, 10-15% Laemmli gels (10.3% T and 3.3% C) were used to separate proteins on Bio-Rad apparati. […] Immunoblots were washed 5× with TBS-T and dried, then scanned on Odyssey CLx (LI-COR) and quantified using Image-Studio software (LI-COR). […]
A general note: Immunoblotting shows a protein as a band on a membrane.

SMILES strings stand for the structures.

For the compound `CC(=O)N(O)CCCCCNC(=O)CCC(=O)N(O)CCCCCNC(=O)CCC(=O)N(O)CCCCCN` [Dfx, N′-[5-(Acetyl-hydroxy-amino)pentyl]-N-[5-[3-(5-aminopentyl-hydroxy-carbamoyl)propanoylamino]pentyl]-N-hydroxy-butane diamide], the “augmentation of SNAP-25 levels” value is “approximately two-fold” and the SNAP-25 levels result was “neither L1 nor Dfx affected SNAP-25 levels”.

Take `Cc1c(O)c(=O)ccn1C` [L1, 3-hydroxy-1,2-dimethyl-4(1H)-pyridone]: the “augmentation of SNAP-25 levels” value is given as “approximately two-fold” and the SNAP-25 levels result is on record as “neither L1 nor Dfx affected SNAP-25 levels”.
